Organism: Rattus norvegicus
Assay: DrugMatrix - Regimen: Daily Repeat
Assay type: toxicity, organism-based, Sprague-Dawley
Design: regimen Daily Repeat, gender Male, age 6-8 weeks
Details: in vivo, po, route oral GAVAGE, vehicle 100 % WATER; for ABSOLUTE BASOPHIL / ABSOLUTE EOSINOPHIL / ABSOLUTE LYMPHOCYTE / ABSOLUTE MONOCYTE / ABSOLUTE SEGMENTED NEUTROPHIL / BASOPHIL / EOSINOPHIL / ERYTHROCYTE COUNT / HEMATOCRIT / HEMOGLOBIN / LEUKOCYTE COUNT / LYMPHOCYTE / MEAN CORPUSCULAR HEMOGLOBIN / MEAN CORPUSCULAR HEMOGLOBIN CONCENTRATION / MEAN CORPUSCULAR VOLUME / MONOCYTE / NEUTROPHIL / NUCLEATED RED BLOOD CELLS / PLATELET COUNT: tissue Blood; for ALANINE AMINOTRANSFERASE / ALBUMIN / ALKALINE PHOSPHATASE / ASPARTATE AMINOTRANSFERASE / BLOOD UREA NITROGEN / CARBON DIOXIDE / CHLORIDE / CHOLESTEROL / CREATINE PHOSPHOKINASE / CREATININE / GLUCOSE / LACTATE DEHYDROGENASE / LIPASE / PHOSPHORUS / POTASSIUM / SODIUM / TOTAL BILIRUBIN / TOTAL PROTEIN / URIC ACID: tissue Plasma
[1] = 56 mg/kg, 120 h, dose level Low, time 5 day
[2] = 476 mg/kg, 72 h, dose level High, time 3 day
[3] = 476 mg/kg, 120 h, dose level High, time 5 day

CC[C@H]1OC(=O)[C@H](C)[C@@H](O[C@H]2C[C@@](C)(OC)[C@@H](O)[C@H](C)O2)[C@H](C)[C@@H](O[C@@H]2O[C@H](C)C[C@H](N(C)C)[C@H]2O)[C@](C)(OC)C[C@@H](C)C(=O)[C@H](C)[C@@H](O)[C@]1(C)O [CLARITHROMYCIN]
ABSOLUTE BASOPHIL [1]: 0 CELLS/uL
ABSOLUTE EOSINOPHIL [1]: 40 CELLS/uL
ABSOLUTE LYMPHOCYTE [1]: 7764 CELLS/uL
ABSOLUTE MONOCYTE [1]: 32 CELLS/uL
ABSOLUTE SEGMENTED NEUTROPHIL [1]: 364 CELLS/uL
BASOPHIL [1]: 0%
EOSINOPHIL [1]: 0.67%
ERYTHROCYTE COUNT [1]: 5.84 x10E6/uL
HEMATOCRIT [1]: 35.03%
HEMOGLOBIN [1]: 13.63 G/DL
LEUKOCYTE COUNT [1]: 8.2 x10E3/uL
LYMPHOCYTE [1]: 94.67%
MEAN CORPUSCULAR HEMOGLOBIN [1]: 23.37 pg
MEAN CORPUSCULAR HEMOGLOBIN CONCENTRATION [1]: 38.9 G/DL
MEAN CORPUSCULAR VOLUME [1]: 60.03 fL
MONOCYTE [1]: 0.33%
NEUTROPHIL [1]: 4.33%
NUCLEATED RED BLOOD CELLS [1]: 0 /100WBC
PLATELET COUNT [1]: 1127.33 x10E3/uL
ALANINE AMINOTRANSFERASE [1]: 56 u/L
ALBUMIN [1]: 3.97 G/DL
ALKALINE PHOSPHATASE [1]: 322 u/L
ASPARTATE AMINOTRANSFERASE [1]: 90.33 u/L
BLOOD UREA NITROGEN [1]: 16.67 mg/dL
CARBON DIOXIDE [1]: 34 mmol/L
CHLORIDE [1]: 98.67 MEQ/L
CHOLESTEROL [1]: 84 mg/dL
CREATINE PHOSPHOKINASE [1]: 286 u/L
CREATININE [1]: 0.11 mg/dL
GLUCOSE [1]: 141 mg/dL
LACTATE DEHYDROGENASE [1]: 125 u/L
LIPASE [1]: 13 u/L
PHOSPHORUS [1]: 11.17 mg/dL
POTASSIUM [1]: 6.34 MEQ/L
SODIUM [1]: 144.27 MEQ/L
TOTAL BILIRUBIN [1]: 0.17 mg/dL
TOTAL PROTEIN [1]: 5.97 G/DL
URIC ACID [1]: 0.73 mg/dL
ABSOLUTE BASOPHIL [2]: 0 CELLS/uL
ABSOLUTE EOSINOPHIL [2]: 46 CELLS/uL
ABSOLUTE LYMPHOCYTE [2]: 13692.67 CELLS/uL
ABSOLUTE MONOCYTE [2]: 172 CELLS/uL
ABSOLUTE SEGMENTED NEUTROPHIL [2]: 556 CELLS/uL
BASOPHIL [2]: 0%
EOSINOPHIL [2]: 0.33%
ERYTHROCYTE COUNT [2]: 5.74 x10E6/uL
HEMATOCRIT [2]: 36.57%
HEMOGLOBIN [2]: 14.2 G/DL
LEUKOCYTE COUNT [2]: 14.47 x10E3/uL
LYMPHOCYTE [2]: 94.67%
MEAN CORPUSCULAR HEMOGLOBIN [2]: 24.73 pg
MEAN CORPUSCULAR HEMOGLOBIN CONCENTRATION [2]: 38.83 G/DL
MEAN CORPUSCULAR VOLUME [2]: 63.7 fL
MONOCYTE [2]: 1%
NEUTROPHIL [2]: 4%
NUCLEATED RED BLOOD CELLS [2]: 0 /100WBC
PLATELET COUNT [2]: 1345 x10E3/uL
ALANINE AMINOTRANSFERASE [2]: 55.33 u/L
ALBUMIN [2]: 3.8 G/DL
ALKALINE PHOSPHATASE [2]: 227.33 u/L
ASPARTATE AMINOTRANSFERASE [2]: 72.33 u/L
BLOOD UREA NITROGEN [2]: 8.33 mg/dL
CARBON DIOXIDE [2]: 29.67 mmol/L
CHLORIDE [2]: 99.33 MEQ/L
CHOLESTEROL [2]: 68 mg/dL
CREATINE PHOSPHOKINASE [2]: 191.67 u/L
CREATININE [2]: 0.37 mg/dL
GLUCOSE [2]: 161 mg/dL
LACTATE DEHYDROGENASE [2]: 112 u/L
LIPASE [2]: 28.67 u/L
PHOSPHORUS [2]: 11.53 mg/dL
POTASSIUM [2]: 6.1 MEQ/L
SODIUM [2]: 142.2 MEQ/L
TOTAL BILIRUBIN [2]: 0.13 mg/dL
TOTAL PROTEIN [2]: 5.83 G/DL
URIC ACID [2]: 1.23 mg/dL
ABSOLUTE BASOPHIL [3]: 0 CELLS/uL
ABSOLUTE EOSINOPHIL [3]: 0 CELLS/uL
ABSOLUTE LYMPHOCYTE [3]: 10830 CELLS/uL
ABSOLUTE MONOCYTE [3]: 144.67 CELLS/uL
ABSOLUTE SEGMENTED NEUTROPHIL [3]: 592 CELLS/uL
BASOPHIL [3]: 0%
EOSINOPHIL [3]: 0%
ERYTHROCYTE COUNT [3]: 5.53 x10E6/uL
HEMATOCRIT [3]: 34.87%
HEMOGLOBIN [3]: 13.93 G/DL
LEUKOCYTE COUNT [3]: 11.57 x10E3/uL
LYMPHOCYTE [3]: 94%
MEAN CORPUSCULAR HEMOGLOBIN [3]: 25.2 pg
MEAN CORPUSCULAR HEMOGLOBIN CONCENTRATION [3]: 40 G/DL
MEAN CORPUSCULAR VOLUME [3]: 63.07 fL
MONOCYTE [3]: 1%
NEUTROPHIL [3]: 5%
NUCLEATED RED BLOOD CELLS [3]: 0 /100WBC
PLATELET COUNT [3]: 1171.67 x10E3/uL
ALANINE AMINOTRANSFERASE [3]: 58 u/L
ALBUMIN [3]: 3.67 G/DL
ALKALINE PHOSPHATASE [3]: 256.67 u/L
ASPARTATE AMINOTRANSFERASE [3]: 67 u/L
BLOOD UREA NITROGEN [3]: 13.33 mg/dL
CARBON DIOXIDE [3]: 34.67 mmol/L
CHLORIDE [3]: 98 MEQ/L
CHOLESTEROL [3]: 64.33 mg/dL
CREATINE PHOSPHOKINASE [3]: 178.33 u/L
CREATININE [3]: 0.18 mg/dL
GLUCOSE [3]: 126.67 mg/dL
LACTATE DEHYDROGENASE [3]: 105.33 u/L
LIPASE [3]: 11.67 u/L
PHOSPHORUS [3]: 9.63 mg/dL
POTASSIUM [3]: 6.01 MEQ/L
SODIUM [3]: 142.53 MEQ/L
TOTAL BILIRUBIN [3]: 0.13 mg/dL
TOTAL PROTEIN [3]: 5.9 G/DL
URIC ACID [3]: 0.6 mg/dL

Reference: ChEMBL document CHEMBL3885881, “DrugMatrix”
